# Reference: ChEMBL document CHEMBL5376002, “A Hybrid Antimicrobial Peptide Targeting Staphylococcus aureus with a Dual Function of Inhibiting Quorum Sensing Signaling and an Antibacterial Effect” (J Med Chem, 2023)
# Active and inactive are the calls of the source. The rule behind the calls is not given here. Numbered stars: 1 amine (or outer) side, 2 acyl side, 3 side chain; on linkers, the order of the positions; unused ones are H or OH. Bridge positions count the residues as written; N and C are the ends. Square brackets hold non-standard residues; d marks the D form. Peptide text beside a SMILES is read from it. I, II: the chains in the order shown. X1 = O=C1CC([*:2])C(=O)N1CCCCCC(=O)[*:1]; Dab = NCC[C@H](N)C(=O)O
# Experiments:
# Staphylococcus aureus [1] = experiment: Bactericidal activity against Staphylococcus aureus ATCC 12600 assessed as inhibition of bacterial growth incubated for 18 to 24 hrs; assay type: functional; details: time 18-24 hrs
# Streptococcus mutans [2] = experiment: Bactericidal activity against Streptococcus mutans UA159 assessed as inhibition of bacterial growth incubated for 18 to 24 hrs; assay type: functional; details: time 18-24 hrs
# [3] = Binding affinity to AgrC-I extra-loop-II (unknown origin) assessed as change in enthalpy incubated for 10 mins by isothermal titration calorimetry analysis
# [4] = Binding affinity to AgrC-I extra-loop-II (unknown origin) assessed as dissociation constant incubated for 10 mins by isothermal titration calorimetry analysis
# [5] = Inhibition of quorum sensing system in Staphylococcus epidermidis ATCC 12228 assessed as downregulation of RNAIII expression level at 0.78 uM incubated for 24 hrs by qRT-PCR analysis
# [6] = tested on: Staphylococcus saprophyticus; experiment: Bactericidal activity against Staphylococcus saprophyticus ATCC BAA-750 assessed as inhibition of bacterial growth incubated for 18 to 24 hrs; assay type: functional; details: time 18-24 hrs
# Staphylococcus aureus [7] = experiment: Inhibition of biofilm formation in Staphylococcus aureus at 0.39 uM incubated for 24 hrs by crystal violet staining based analysis; assay type: functional, organism-based
# Staphylococcus aureus [8] = experiment: Antibacterial activity against Staphylococcus aureus assessed as reduction in bacterial growth at 6.25 uM measured at 20 mins by time kill assay; assay type: functional, organism-based
# [9] = Binding affinity to AgrC-I extra-loop-III (unknown origin) assessed as dissociation constant incubated for 10 mins by isothermal titration calorimetry analysis
# [10] = Inhibition of quorum sensing system in Staphylococcus aureus ATCC 6538p assessed as downregulation of RNAIII expression level at 0.78 uM incubated for 24 hrs by qRT-PCR analysis
# Homo sapiens [11] = species on record: Homo sapiens; experiment: Binding affinity to AgrC-I extra-loop-III (unknown origin) assessed as gibbs free energy change incubated for 10 mins by isothermal titration calorimetry analysis
# [12] = Inhibition of quorum sensing system in Staphylococcus saprophyticus ATCC BAA-750 assessed as downregulation of RNAIII expression level at 0.78 uM incubated for 24 hrs by qRT-PCR analysis
# Streptococcus pneumoniae [13] = experiment: Antibacterial activity against Streptococcus pneumoniae assessed as reduction in bacterial growth at 6.25 uM measured at 20 mins by time kill assay; assay type: functional, organism-based
# Staphylococcus aureus [14] = experiment: Antivirulence activity against Staphylococcus aureus assessed as downregulation of RNAIII expression level at 1 to 100 uM incubated for 24 hrs by qRT-PCR analysis; assay type: functional, organism-based; details: dose 1-100 µM
# Streptococcus mutans [15] = experiment: Antibacterial activity against Streptococcus mutans UA159 assessed as inhibition of bacterial growth incubated for 18 to 24 hrs; assay type: functional; details: time 18-24 hrs
# RAW264.7 = experiment: Cytotoxicity against mouse RAW264.7 cells assessed as cell viability incubated for 48 hrs by MTT assay; assay type: functional
# [16] = Toxicity in Kunming mouse infected with Staphylococcus aureus ATCC 6538p assessed as body weight gain 15 to 45 mg/kg, ip pre-infected with bacteria for 1 hr followed by compound administration and measured after 5 days; assay type: organism-based; details: in vivo, 120 h, dose 15-45 mg/kg, time 5 day
# Escherichia coli [17] = experiment: Antibacterial activity against Escherichia coli assessed as reduction in bacterial growth at 6.25 uM measured at 20 mins by time kill assay; assay type: functional, organism-based
# Cell membrane [18] = experiment: Induction of cell membrane damage in Staphylococcus aureus ATCC 6538p assessed as increase in fluorescent intensity incubated for 30 mins by PI staining based flow cytometry assay
# [19] = Toxicity in Kunming mouse infected with Staphylococcus aureus ATCC 6538p assessed as animal survival rate 45 mg/kg, ip pre-infected with bacteria for 1 hr followed by compound administration and measured after 7 days; assay type: organism-based; details: in vivo, 168 h, time 7 day
# [20] = tested on: Staphylococcus epidermidis; experiment: Antibacterial activity against Staphylococcus epidermidis assessed as reduction in bacterial growth at 6.25 uM measured at 20 mins by time kill assay; assay type: functional, organism-based
# Homo sapiens [21] = species on record: Homo sapiens; experiment: Binding affinity to AgrC-I extra-loop-II (unknown origin) assessed as gibbs free energy change incubated for 10 mins by isothermal titration calorimetry analysis
# Staphylococcus aureus [22] = experiment: Bactericidal activity against Staphylococcus aureus ATCC 43300 assessed as inhibition of bacterial growth incubated for 18 to 24 hrs; assay type: functional; details: time 18-24 hrs
# Staphylococcus aureus [23] = experiment: Bactericidal activity against Staphylococcus aureus ATCC 6538p assessed as inhibition of bacterial growth incubated for 18 to 24 hrs; assay type: functional; details: time 18-24 hrs
# [24] = tested on: Staphylococcus epidermidis; experiment: Antibacterial activity against Staphylococcus epidermidis ATCC 12228 assessed as inhibition of bacterial growth incubated for 18 to 24 hrs; assay type: functional; details: time 18-24 hrs
# Escherichia coli [25] = experiment: Antibacterial activity against Escherichia coli ATCC 25922 assessed as inhibition of bacterial growth incubated for 18 to 24 hrs; assay type: functional; details: time 18-24 hrs
# Staphylococcus aureus [26] = experiment: Inhibition of biofilm formation in Staphylococcus aureus at 0.78 to 1.56 uM incubated for 24 hrs by crystal violet staining based analysis; assay type: functional, organism-based; details: dose 0.78-1.56 µM
# Erythrocyte = experiment: Hemolytic activity in rat RBC assessed as hemolysis measured after 20 hrs; assay type: toxicity, cell-based
# Streptococcus pneumoniae [27] = experiment: Antibacterial activity against Streptococcus pneumoniae ATCC 49619 assessed as inhibition of bacterial growth incubated for 18 to 24 hrs; assay type: functional; details: time 18-24 hrs
# Streptococcus mutans [28] = experiment: Antibacterial activity against Streptococcus mutans ATCC 25175 assessed as inhibition of bacterial growth incubated for 18 to 24 hrs; assay type: functional; details: time 18-24 hrs
# Staphylococcus aureus [29] = experiment: Antibacterial activity against Staphylococcus aureus ATCC 43300 assessed as inhibition of bacterial growth incubated for 18 to 24 hrs; assay type: functional; details: time 18-24 hrs
# [30] = Binding affinity to AgrC-I extra-loop-III (unknown origin) assessed as change in enthalpy incubated for 10 mins by isothermal titration calorimetry analysis
# Staphylococcus aureus [31] = experiment: Antibacterial activity against Staphylococcus aureus ATCC 12600 assessed as inhibition of bacterial growth incubated for 18 to 24 hrs; assay type: functional; details: time 18-24 hrs
# [32] = Binding affinity to AgrC-I extra-loop-I (unknown origin) assessed as dissociation constant incubated for 10 mins by isothermal titration calorimetry analysis
# Staphylococcus aureus [33] = experiment: Antivirulence activity against Staphylococcus aureus assessed as downregulation of hla expression level at 1 to 100 uM incubated for 24 hrs by qRT-PCR analysis; assay type: functional, organism-based; details: dose 1-100 µM
# Cell membrane [34] = experiment: Induction of cell membrane damage in Staphylococcus aureus ATCC 6538p assessed as increase in nucleic acid leakage measured up to 30 mins by UV-spectrophotometer analysis; assay type: subcellular
# Homo sapiens [35] = species on record: Homo sapiens; experiment: Binding affinity to AgrC-I extra-loop-I (unknown origin) assessed as change in entropy incubated for 10 mins by isothermal titration calorimetry analysis
# Staphylococcus aureus [36] = experiment: Inhibition of biofilm formation in Staphylococcus aureus incubated for 24 hrs by crystal violet staining based microscopic analysis; assay type: functional, organism-based
# Homo sapiens [37] = species on record: Homo sapiens; experiment: Binding affinity to AgrC-I extra-loop-II (unknown origin) assessed as change in entropy incubated for 10 mins by isothermal titration calorimetry analysis
# [38] = Binding affinity to AgrC-I extra-loop-I (unknown origin) assessed as change in enthalpy incubated for 10 mins by isothermal titration calorimetry analysis
# Homo sapiens [39] = species on record: Homo sapiens; experiment: Binding affinity to AgrC-I extra-loop-I (unknown origin) assessed as gibbs free energy change incubated for 10 mins by isothermal titration calorimetry analysis
# Homo sapiens [40] = species on record: Homo sapiens; experiment: Binding affinity to AgrC-I extra-loop-III (unknown origin) assessed as change in entropy incubated for 10 mins by isothermal titration calorimetry analysis
compound,measurement,setting,value
CC[C@H](C)[C@H](NC(=O)CNC(=O)CNC(=O)[C@@H](N)CSC1CC(=O)N(CCCCCC(=O)NCC(=O)N[C@H](C(=O)N[C@@H](CCCCN)C(=O)N[C@@H](CC(N)=O)C(=O)N[C@@H](CC(C)C)C(=O)N[C@@H](Cc2c[nH]c3ccccc23)C(=O)N[C@@H](CCCCN)C(=O)N[C@@H](CCCCN)C(=O)N[C@@H](CCSC)C(=O)N[C@H](C(=O)N[C@@H](CCCCN)C(=O)N[C@@H](CC(C)C)C(=O)N[C@@H](Cc2c[nH]c3ccccc23)C(=O)N[C@@H](Cc2ccc(O)cc2)C(=O)O)[C@@H](C)CC)[C@@H](C)CC)C1=O)C(=O)N[C@@H](CC(N)=O)C(=O)N[C@H]1CCNC(=O)[C@H](CC(C)C)NC(=O)[C@H](CC(C)C)NC(=O)[C@H](Cc2ccccc2)NC(=O)[C@H](C)NC1=O (some centres not stated) (I: GIKNLWKKMIKLWY-OH / II: H-CGGIN[Dab]AFLL; linker I:N-II:1 via X1; lactam II:6-II:C),MBC,Staphylococcus aureus [1],3.13 µM
same,MBC,Streptococcus mutans [2],6.25 µM
same,deltaH,[3],inactive
same,Kd,[4],0.001 nM
same,inhibition,[5],inactive
same,MBC,[6],3.13 µM
same,inhibition,Staphylococcus aureus [7],Active
same,Activity,Staphylococcus aureus [8],Active
same,Kd,[9],0.001 nM
same,inhibition,[10],Active
same,deltaG,Homo sapiens [11],-16.4 kcal/mol
same,inhibition,[12],inactive
same,Activity,Streptococcus pneumoniae [13],inactive
same,Activity,Staphylococcus aureus [14],Active
same,MIC,Streptococcus mutans [15],6.25 µM
same,CC50,RAW264.7,71100 nM
same,Activity,[16],Non-Toxic
same,Activity,Escherichia coli [17],inactive
same,Activity,Cell membrane [18],Active
same,Activity,[19],50%
same,Activity,[20],inactive
same,deltaG,Homo sapiens [21],-16.4 kcal/mol
same,MBC,Staphylococcus aureus [22],6.25 µM
same,MBC,Staphylococcus aureus [23],3.13 µM
same,MIC,[24],1.56 µM
same,MIC,Escherichia coli [25],3.13 µM
same,inhibition,Staphylococcus aureus [26],Active
same,Activity,Erythrocyte,Toxic
same,MIC,Streptococcus pneumoniae [27],6.25 µM
same,MIC,Streptococcus mutans [28],3.13 µM
same,MIC,Staphylococcus aureus [29],6.25 µM
same,deltaH,[30],inactive
same,MIC,Staphylococcus aureus [31],3.13 µM
same,Kd,[32],0.001 nM
same,Activity,Staphylococcus aureus [33],Active
same,Activity,Cell membrane [34],Active
same,-TdeltaS,Homo sapiens [35],-11.7 kcal/mol
same,inhibition,Staphylococcus aureus [36],Active
same,-TdeltaS,Homo sapiens [37],16.4 kcal/mol
same,deltaH,[38],-4.7 kcal/mol
same,deltaG,Homo sapiens [39],-16.4 kcal/mol
same,-TdeltaS,Homo sapiens [40],-16.3 kcal/mol
